Measurements reported in patent publication US20240067604A1, “COMBINATIONS OF IRS/STAT3 DUAL MODULATORS AND ANTI PD-1/PD-L1 ANTIBODIES FOR TREATING CANCER” (TYRNOVO LTD., priority 2017, published 2024).

Tested on: esophagogastric junction adenocarcinoma patient-derived xenograft (PDX)
Assay: Patient-derived xenograft (PDX) of esophagogastric junction adenocarcinoma in NodScid mice supplemented with PBMCs from the same patient (double autologous)
Format: in vivo, NodScid mice (human tumor and PBMCs)
Conditions: PDX SC in NodScid mice + patient PBMCs; Compound 4 70 mg/kg IV and/or Keytruda 6 mg/kg IP on days 0, 5 and 11; treatment started at ~160 mm^3; sacrificed on day 18
Description: Patient-derived xenograft (PDX) of esophagogastric junction adenocarcinoma biopsy subcutaneous (SC) implanted into NodScid mice. At the first day of treatment peripheral blood mononuclear cells (PBMCs) from the same patient were intravenous injected to the mice (double autologous).
Fresh human primary esophagogastric junction adenocarcinoma biopsy was subcutaneously (SC) implanted into NSG mice (P0).
Subcutaneous implantation of human primary tumor biopsy into NodScid mice.
The tumor (P3) was extracted from the mice, measured, cut into small pieces of 1-2 mm and transferred into the gentleMACS Tube containing the sterile saline. […] Animals were observed and monitored for any discomfort and immobility day by day.
Isolation of human PBMCs: Human PBMCs were isolated from heparinized venous blood samples of the same esophagus adenocarcinoma patient by density gradient centrifugation method using Ficol Histopaque (Sigma). […] The total cell number and the number of viable cells were evaluated. […] On the day of injection, the cells were thawed, washed twice in order to dilute possible DMSO residues by the addition of PBS and centrifugation (600 g for 10 minutes, RT) and viable cells were counted. […]
The length (l) and the width (w) of the tumors were measured 4-5 times a week and the volumes of the tumors were calculated as follows: v=lw^2/2. […]

With Oc1cc(CNC(=S)/C=C/c2ccc(O)c(O)c2Br)cc(O)c1O [Compound 4] the “Tumor response / tumor progression (tumor volume, FIG. 1)” value was “no response”.
